Results from ChEMBL document CHEMBL1144575, “Design and synthesis of 3,5-disubstituted benzamide analogues of DNK333 as dual NK1/NK2 receptor probes” (Bioorg Med Chem Lett, 2007).
The source made the active and inactive calls. No cut-off for these calls is given here.

Columns and labels:
Format in all cases: functional, tissue-based
[1] = biological target: T1, Substance-K receptor (Cavia porcellus) (UniProt Q64077); assay: Antagonist activity at NK2 receptor in guinea pig trachea as inhibition of [beta-Ala8]NKA(4-10)-induced bronchoconstriction up to 1 uM
T1 sequence (whole entry): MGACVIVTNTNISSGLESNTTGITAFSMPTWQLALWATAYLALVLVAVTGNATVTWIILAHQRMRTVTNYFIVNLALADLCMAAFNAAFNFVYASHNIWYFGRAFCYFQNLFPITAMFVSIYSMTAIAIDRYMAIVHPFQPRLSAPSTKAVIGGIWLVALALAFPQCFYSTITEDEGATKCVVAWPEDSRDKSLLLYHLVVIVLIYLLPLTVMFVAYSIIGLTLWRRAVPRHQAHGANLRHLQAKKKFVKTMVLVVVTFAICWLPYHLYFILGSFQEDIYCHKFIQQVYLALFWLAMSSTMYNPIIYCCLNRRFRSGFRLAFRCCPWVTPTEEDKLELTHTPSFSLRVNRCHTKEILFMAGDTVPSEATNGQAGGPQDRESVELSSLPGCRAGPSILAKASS

[2] = biological target: Substance-P receptor (Cavia porcellus) (UniProt P30547); assay: Antagonist activity at NK1 receptor in guinea pig trachea as inhibition of ASM-SP-induced bronchoconstriction up to 1 uM
[3] = biological target: Substance-P receptor (Cavia porcellus) (UniProt P30547); assay: Antagonist activity at NK1 receptor in guinea pig trachea as inhibition of ASM-SP-induced bronchoconstriction relative to control; design: scale not given: the % may be the effect or the level left
[4] = biological target: T1, Substance-K receptor (Cavia porcellus); assay: Antagonist activity at NK2 receptor in guinea pig trachea as inhibition of [beta-Ala8]NKA(4-10)-induced bronchoconstriction relative to control; design: scale not given: the % may be the effect or the level left
[5] = biological target: T1, Substance-K receptor (Cavia porcellus); assay: Antagonist activity at NK2 receptor in guinea pig trachea as inhibition of [beta-Ala8]NKA(4-10)-induced bronchoconstriction
[6] = biological target: Substance-P receptor (Cavia porcellus) (UniProt P30547); assay: Antagonist activity at NK1 receptor in guinea pig trachea as inhibition of ASM-SP-induced bronchoconstriction

Chain of Substance-P receptor (Cavia porcellus) (P30547 whole entry): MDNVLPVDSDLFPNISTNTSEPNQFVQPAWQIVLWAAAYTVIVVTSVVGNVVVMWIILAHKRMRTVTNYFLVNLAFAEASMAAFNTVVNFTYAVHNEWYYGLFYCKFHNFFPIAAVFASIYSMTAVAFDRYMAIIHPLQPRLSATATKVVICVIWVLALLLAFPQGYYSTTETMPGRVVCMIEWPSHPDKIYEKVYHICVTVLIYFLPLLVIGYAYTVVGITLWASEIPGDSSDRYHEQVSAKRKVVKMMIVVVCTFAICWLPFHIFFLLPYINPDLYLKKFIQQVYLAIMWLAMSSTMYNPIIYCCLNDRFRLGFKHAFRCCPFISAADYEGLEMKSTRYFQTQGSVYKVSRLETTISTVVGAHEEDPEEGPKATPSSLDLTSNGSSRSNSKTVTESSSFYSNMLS

Structure (SMILES)	Activity [1]	Activity [2]	Activity [3] [%]	Activity [4] [%]	pKb [5]	pKb [6]
CC(=O)Nc1cc(NC(C)=O)cc(C(=O)N(C)[C@@H](/C=C/C(=O)N[C@@H]2CCCCNC2=O)Cc2ccc(Cl)c(Cl)c2)c1	inactive	inactive	–	–	–	–
CN(C(=O)c1cc([N+](=O)[O-])cc([N+](=O)[O-])c1)[C@@H](/C=C/C(=O)N[C@@H]1CCCCNC1=O)Cc1ccc(Cl)c(Cl)c1	–	–	96.1	96.1	7.87	8.4
CN(C(=O)c1cc(C(F)(F)F)cc(C(F)(F)F)c1)[C@@H](/C=C/C(=O)N[C@@H]1CCCCNC1=O)Cc1ccc(Cl)c(Cl)c1	–	–	89.4	97	7.43	9.2
CN(C(=O)c1cc(NC(=O)CBr)cc(NC(=O)CBr)c1)[C@@H](/C=C/C(=O)N[C@@H]1CCCCNC1=O)Cc1ccc(Cl)c(Cl)c1	inactive	inactive	–	–	–	–
COC(=S)Nc1cc(NC(=S)OC)cc(C(=O)N(C)[C@@H](/C=C/C(=O)N[C@@H]2CCCCNC2=O)Cc2ccc(Cl)c(Cl)c2)c1	inactive	inactive	–	–	–	–
CN(C(=O)c1cc(N=C=S)cc(N=C=S)c1)[C@@H](/C=C/C(=O)N[C@@H]1CCCCNC1=O)Cc1ccc(Cl)c(Cl)c1	inactive	inactive	–	–	–	–
CN(C(=O)c1cc(N)cc(N)c1)[C@@H](/C=C/C(=O)N[C@@H]1CCCCNC1=O)Cc1ccc(Cl)c(Cl)c1	inactive	inactive	–	–	–	–
